We go through 2 molecules from patent US20260207717A1, “METHODS FOR TREATING INFANTILE-ONSET POMPE DISEASE IN PEDIATRIC PATIENTS” (Amicus Therapeutics, Inc., priority 2022, published 2026).

Like-named read-outs stand apart in the source and are kept apart here.

Series [1] in a line: clinical. Conditions: human, in vivo. How it is done:
At 10Y7M of age, the blood of the patient was collected to gather pharmacokinetic (PK) data for their treatment that included weekly administration of 20 mg/kg ATB200 and 130 mg AT2221.
Blood sampling of the patient was conducted to gather pharmacokinetic (PK) data for their treatment that included administration of 25 mg/kg ATB200 and 195 mg AT2221 biweekly.
At 12Y5M of age, the patient has been receiving ATB200 (20 mg/kg) and AT2221 (195 mg) biweekly for 1 year. […] At this time, the PK levels of both ATB200 and AT2221 were taken from the patient.

Series [2] in a line: Miglustat plasma pharmacokinetics. The series is classed as in vivo, human. Conditions: 130 mg to 260 mg. How it is done:
At the recommended 260 mg dose, the mean Cmax was approximately 3 mcg/mL and the mean AUC was approximately 25 mcg*hr/mL. The mean time to reach the maximum concentration ranged from 2 hours to 3 hours.

In series [3] the test system is single fibers isolated from the white gastrocnemius of Gaa KO mice. The series can be described thus: Single fiber analysis (LAMP1/LC3 co-immunofluorescence). The class given is in vivo. The text has this: FIG. 17 depicts co-immunofluorescent staining of LAMP1 (green) (see for example, “B”) and LC3 (red) (see, for example, “A”) in single fibers isolated from the white gastrocnemius of Gaa KO mice treated with a vehicle, alglucosidase alfa, or ATB200. “C” depicts clearance of autophagic debris and absence of enlarged lysosome. A minimum of 30 fibers were examined from each animal.
As a result, a significant portion of muscle fibers analyzed (36-60%) from ATB200-treated mice appeared normal or near-normal.

The target of series [4] is CIMPR (Homo sapiens, UniProt P11717). The series can be described thus: CIMPR affinity chromatography (bound vs unbound rhGAA by GAA activity). The series is classed as binding. The text has this: Multiple batches of the rhGAA according to the disclosure were produced in shake flasks and in perfusion bioreactors using CHO cell line GA-ATB200, the product of which is referred to as “ATB200.” Weak anion exchange (“WAX”) liquid chromatography was used to fractionate ATB200 rhGAA according to terminal phosphate and sialic acid. Elution profiles were generated by eluting the ERT with increasing amount of salt. The profiles were monitored by UV (A280 nm).
To evaluate the ability of the conventional rhGAAs in MYOZYME® and LUMIZYME® to interact with the CIMPR, the two conventional rhGAA preparations were injected onto a CIMPR affinity column (which binds rhGAA having M6P groups) and the flow through collected. The bound material was eluted with a free M6 gradient. Fractions were collected in 96-well plate and GAA activity assayed by 4MU-α-glucosidase substrate. The relative amounts of unbound (flow through) and bound (M6P eluted) rhGAA were determined based on GAA activity and reported as the fraction of total enzyme. […] Indeed, only 27% of the rhGAA in MYOZYME® and 22% of the rhGAA in LUMIZYME® contained M6P that can be productive to target it to the CIMPR on muscle cells.

In series [5] the test system is pediatric patient with infantile Pompe disease. The series can be described thus: Example 16: pediatric IOPD patient switched from Myozyme to ATB200/AT2221. The class given is in vivo, human. The text has this: A patient with severe infantile Pompe disease presented. The patient underwent a comprehensive physical examination, measurement of GAA enzyme activity, genetic testing of the GAA gene and muscle biopsy to establish the diagnosis.
The patient received the high-dose enzyme replacement therapy with Myozyme after diagnosis. The patient responded very poorly to therapy. Due to rapidly progressing Pompe disease and inadequate response to therapy, the patient's survival was at risk. For the patient, the opportunity arose to receive the new ATB200/AT2221 ERT via a compassionate use/Expanded Access Program (EAP).
The index patient has regular measurement of the urinary Glc4-levels since the change of the ERT to ATB200. The Glc4-levels were determined by an established method from the Duke University. The analysis of Glc4 is standardized as a butyl-4-aminobenzoate derivative using [^13C6] Glc4 as the internal standard (IS). The measurement is performed as ultra-performance liquid chromatography-tandem mass spectrometry (UPLC-MS/MS). The Glc4-values are then normalized to creatinine.
The patient presented with IOPD at 6 months and was started on the standard dose of Myozyme (20 mg/kg/bi-weekly). Due to the inadequate response to therapy, the dose was doubled just one month after the start of therapy in form of a weekly administration of Myozyme. […] But the cardiological situation deteriorated progressively.
Therefore, just three months after initiation of therapy, the dose was again doubled to 40 mg/kg/weekly, so the patient received a total of four times the standard dose. With the intensification of ERT and cardiac therapy, the patient's condition initially stabilized. Nevertheless, over the next few months, the patient's general condition steadily deteriorated, and the patient decompensated, especially respiratory.
The patient was switched from Myozyme to ATB200/AT2221 after eight months of insufficient Myozyme therapy response. The patient was […] at the time of the therapy switch. The new therapy (via EAP) was initiated with the oral administration of 30 mg premedication AT2221 (Miglustat) one hour prior to enzyme administration. ATB200 was administered at a bi-weekly interval at a dosage of 20 mg/kg. In the further course of treatment, the dosage of premedication and ERT was repeatedly adjusted and optimized (see Table 22). Some actual dosages in Table 22 (e.g., 37 mg/kg and 34.5 mg/kg at 32 and 38 months, respectively) varied from the target dose (e.g., 30 mg/kg) to avoid waste of extra material left in vials.
The Gross Motor Function Measure 66 (GMFM 66) is used to quantify a patients' motor skills. The GMFM 66 is a worldwide standardized test developed and validated for children with cerebral palsy to measure the development of gross motor function over time. During testing 66 items are examined and a score from 0 to 100 points is possible.

In series [6] the test system is pediatric IOPD patient. The series is classed as in vivo, human. How it is done: The patient, first-born of unrelated parents […]), was born at 37 weeks by an emergency delivery due to fetal heart failure. At birth, they were resuscitated and admitted to the NICU for invasive ventilatory assistance and circulation support.
Moreover, the patient presented with severe hypotonia, elevated serum CPK (1063 U/L) and BNP ([…], nv 0-100).
At 3 days of life, an extended newborn screening resulted positive for Pompe Disease (GAA activity in DBS 0.40 μM/L, nv>3). uGlc4 was elevated (71.2 mmol/mol creatinine, nv <16.3).
At 5 days of life, the patient was treated with alglucosidase alfa (Myozyme®). Simultaneously, an immunomodulation protocol with rituximab, ev immunoglobulins and methotrexate was started. In addition, an appropriate therapy for the heart failure was started (betablocker, diuretics, ACE inhibitor).
At 2.5 years of life, they started a compassionate use/EAP therapy that combined a new ERT (cipaglucosidase 30 mg/kg/week) with an enzyme stabilizer (miglustat 115 mg) (ATB200-15 Program, Amicus Therapeutics), with clinical benefit.

Series [7] has as its system pediatric IOPD patient.
Setting [8] is: after new immunomodulation cycle, on Myozyme.
Where [9] appears, read: worsening with high antibody titer, on Myozyme.
[10] abbreviates: age ~1 week, Myozyme double dose 40 mg/kg q2wk.

By AUC is commonly meant the area under the concentration-time curve, a measure of exposure. Low readings indicate less exposure, high ones more exposure. One may read the Cmax as the maximum level reached in the sampled fluid or tissue.

CIMPR, sequence (P11717 41-2491, species assumed): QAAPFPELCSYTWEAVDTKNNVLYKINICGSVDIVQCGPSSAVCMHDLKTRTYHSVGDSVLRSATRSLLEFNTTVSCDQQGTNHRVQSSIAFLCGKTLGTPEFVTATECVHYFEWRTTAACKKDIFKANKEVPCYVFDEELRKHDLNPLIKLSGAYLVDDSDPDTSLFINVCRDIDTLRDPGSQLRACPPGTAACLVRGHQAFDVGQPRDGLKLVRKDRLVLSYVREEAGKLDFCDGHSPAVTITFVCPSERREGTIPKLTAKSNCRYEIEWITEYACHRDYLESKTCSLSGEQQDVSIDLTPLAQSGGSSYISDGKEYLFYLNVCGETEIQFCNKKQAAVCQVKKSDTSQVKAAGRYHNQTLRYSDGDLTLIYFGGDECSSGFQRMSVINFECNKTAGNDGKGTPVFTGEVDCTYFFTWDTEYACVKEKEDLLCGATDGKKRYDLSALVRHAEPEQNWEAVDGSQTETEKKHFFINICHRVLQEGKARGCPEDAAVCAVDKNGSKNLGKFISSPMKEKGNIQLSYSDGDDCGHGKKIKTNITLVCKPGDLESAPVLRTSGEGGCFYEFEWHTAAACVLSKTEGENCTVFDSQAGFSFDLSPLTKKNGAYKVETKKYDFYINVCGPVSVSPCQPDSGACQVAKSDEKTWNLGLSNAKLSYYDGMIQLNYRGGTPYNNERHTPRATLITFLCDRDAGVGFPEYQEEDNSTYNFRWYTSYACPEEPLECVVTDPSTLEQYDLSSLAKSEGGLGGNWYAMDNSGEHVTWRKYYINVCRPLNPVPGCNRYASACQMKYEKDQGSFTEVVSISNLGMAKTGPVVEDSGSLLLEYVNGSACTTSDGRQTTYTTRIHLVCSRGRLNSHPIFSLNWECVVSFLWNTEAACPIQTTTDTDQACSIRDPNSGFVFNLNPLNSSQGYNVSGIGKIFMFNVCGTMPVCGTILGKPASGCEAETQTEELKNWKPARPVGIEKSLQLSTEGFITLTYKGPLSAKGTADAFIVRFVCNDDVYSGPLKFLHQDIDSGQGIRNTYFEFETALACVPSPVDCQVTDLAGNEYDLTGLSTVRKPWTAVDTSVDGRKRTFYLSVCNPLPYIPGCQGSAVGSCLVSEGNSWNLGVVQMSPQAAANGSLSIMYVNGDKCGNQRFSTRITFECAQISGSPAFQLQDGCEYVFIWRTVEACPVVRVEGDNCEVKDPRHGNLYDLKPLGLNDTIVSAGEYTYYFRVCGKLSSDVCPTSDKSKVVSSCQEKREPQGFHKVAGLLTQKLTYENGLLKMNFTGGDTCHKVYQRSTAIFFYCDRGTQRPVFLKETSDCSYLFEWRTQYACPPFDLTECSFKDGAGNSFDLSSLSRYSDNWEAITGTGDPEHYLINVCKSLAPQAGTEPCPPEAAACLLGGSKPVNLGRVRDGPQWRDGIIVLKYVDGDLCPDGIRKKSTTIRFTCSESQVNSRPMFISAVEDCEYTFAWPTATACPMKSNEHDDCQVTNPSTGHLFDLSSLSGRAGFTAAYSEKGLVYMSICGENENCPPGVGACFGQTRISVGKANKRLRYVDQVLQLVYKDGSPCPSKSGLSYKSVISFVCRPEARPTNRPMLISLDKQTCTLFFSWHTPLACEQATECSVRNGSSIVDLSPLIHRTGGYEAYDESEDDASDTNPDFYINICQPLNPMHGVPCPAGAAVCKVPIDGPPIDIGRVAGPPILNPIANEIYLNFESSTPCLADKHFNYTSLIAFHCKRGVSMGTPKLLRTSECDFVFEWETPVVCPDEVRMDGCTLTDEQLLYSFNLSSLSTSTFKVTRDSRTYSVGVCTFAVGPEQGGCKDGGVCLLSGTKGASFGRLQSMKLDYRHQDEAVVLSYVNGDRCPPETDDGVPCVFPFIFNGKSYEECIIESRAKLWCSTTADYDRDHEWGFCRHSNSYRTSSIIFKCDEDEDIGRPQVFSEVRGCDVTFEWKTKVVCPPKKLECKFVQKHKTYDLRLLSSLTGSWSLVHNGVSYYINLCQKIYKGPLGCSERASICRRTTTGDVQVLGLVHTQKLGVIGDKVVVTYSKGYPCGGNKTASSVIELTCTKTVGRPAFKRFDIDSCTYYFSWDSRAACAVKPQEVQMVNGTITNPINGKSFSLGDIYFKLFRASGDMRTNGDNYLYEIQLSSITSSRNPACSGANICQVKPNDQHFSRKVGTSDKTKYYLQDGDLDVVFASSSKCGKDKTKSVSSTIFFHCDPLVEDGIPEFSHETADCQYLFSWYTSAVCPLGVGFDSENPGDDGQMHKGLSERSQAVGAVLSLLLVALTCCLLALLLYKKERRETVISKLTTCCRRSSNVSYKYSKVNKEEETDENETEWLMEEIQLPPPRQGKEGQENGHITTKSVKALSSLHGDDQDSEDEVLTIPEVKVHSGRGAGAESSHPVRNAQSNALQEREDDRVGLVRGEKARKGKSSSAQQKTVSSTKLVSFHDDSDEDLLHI

With `CCCCN1C[C@H](O)[C@@H](O)[C@H](O)[C@H]1CO` [miglustat, (2R,3R,4R,5S)-1-butyl-2-(hydroxymethyl)piperidine-3,4,5-triol, reference compound], in series [1], the “AUC relative to adult percentiles” value is recorded as “below the adult 10th percentile” and the “Cmax relative to adult percentiles” value was “within the adult 10th-90th percentile”. Moreover, the AUC in series [1] (AT2221 AUC) lay in the range of 16100 to 24600 ng·h/mL. Besides, the peak concentration (Cmax) in series [1] (AT2221 Cmax) lay within 1800 to 3130 ng/mL. Also, the “dose proportionality of AUC and Cmax” value in series [2] is recorded as “linear pharmacokinetics”.

With “MYOZYME®: conventional rhGAA product containing alglucosidase alfa”, the “lysosome size and autophagic buildup compared to vehicle-treated mice” value in series [3] is “did not show any significant difference”. Also, in series [4] (fraction of total enzyme by GAA activity), the “rhGAA that binds to the CIMPR (contains M6P)” value is 27%. In addition, the “rhGAA that did not bind to the CIMPR” value in series [4] (fraction of total enzyme by GAA activity (FIG. 9A, 9B)) is 73%. In series [5] (20 mg/kg/weekly), the motor function result was “slight motor improvements”. Also, in series [5] (fourfold dose of ERT (40 mg/kg/weekly)), the response to therapy entry is reported as “very poor”. In addition, in series [6] (setting [8]), the CPK was 4,728 U/L, the EF worked out at 48%, the LVMI was 118 g/m2 and the uGlc4 is on record as 35 mmol/mol crea. Further, in series [6] (on Myozyme), the CPK came out at 1877 u/L, the EF stood at 50% and the uGlc4 stood at 20.2 mmol/mol crea. For the same molecule, the LVMI in series [6] (on Myozyme since day 5) is given as 116.6 g/m2. In series [6] (setting [9]), the BNP is recorded as 237 U/L; the EF was found to be 50%; the LVMI is recorded as 229 g/m2; the “serum CPK, maximum” value is on record as 6,795 U/L. Moreover, in series [6] (setting [9]), the “uGlc4, maximum” value turned out to be 50 mmol/mol creatinine. Besides, the CK in series [7] (Myozyme 50 mg/kg q2wk) was 2514-2722 U/L. The CK in series [7] (Myozyme 60 mg/kg q2wk) is on record as 3143-3625 U/L. In series [7] (Myozyme 60 mg/kg q2wk, 2 D), this molecule displayed an LVEF of 70.5% and an LVMI of 26.2 g/m^2. In series [7] (Myozyme 30 then 40 mg/kg qwk), this molecule yielded a CK of 2603 U/L and a Pro-BNP of 401.5 pg/mL. In series [7] (setting [10]), this molecule showed a CK of 880 U/L, a Glc4 of 41.88 mmol/mol CRE and a Pro-BNP of 10169 pg/mL. This molecule displayed an LVMI in series [7] (age ~1 week, Myozyme double dose 40 mg/kg q2wk, M-mode) of 147 g/m^2. Moreover, the CK in series [7] (change to ATB200 20 mg/kg q2w) is 1444 U/L. Also, the “reactions on ERT” value in series [7] (human, in vivo) is “skin rash, dyspnea, a cough and a pale-like complexion”.
